Target: T1, KRAS G12C (GMPPNP-loaded, Cys-light, amino acids 1-169) and cRAF Ras-binding domain interaction (Homo sapiens, UniProt P01116, C118S/C51S/C80L/G12C)
T1 construct: truncated version comprising amino acids 1-169
Assay: Inhibition of KRAS G12C and cRAF binding (AlphaScreen)
Details: KRAS G12C preloaded with GMPPNP, 2 hours compound incubation, room temperature
Description: The AlphaScreen technology was used to determine IC50s for compound inhibition of KRAS G12C (present as the Cys-light (C51S, C80L and C118S), truncated version comprising amino acids 1-169) and cRAF interaction. Compounds were diluted in 100% DMSO and each compound concentration was spotted at 200 nl/well onto low volume, white 384 well plates. The KRAS G12C contained a biotin-AviTag and the cRaf, as Ras-binding domain (amino acids 50-131, RBD), was GST-tagged. KRAS G12C was preloaded with the GTP analogue Guanosine 5′-[…] (GMPPNP). The KRAS G12C was diluted in 25 mM Hepes, pH 7.4, 150 mM NaCl, 5 mM MgCl2, 0.01% TritonX-100 and 10 μM GMPPNP and added at 10 ul/well to compound-spotted plates resulting in a DMSO concentration of 2%. Plates were incubated for 2 hours. A mixture of RBD and the AlphaScreen streptavidin donor and glutathione acceptor beads diluted in 25 mM Hepes, pH 7.4, 150 mM NaCl, 5 mM MgCl2, 0.01% TritonX-100 and 2% DMSO was then added at 10 ul/well and incubated for 60-90 minutes before the samples were read for emission at 570 nm after excitation of the donor beads at 680 nm. All incubations were performed at room temperature. The final top compound concentration was 50 μM with 1:3 titrations for 10-point dose response curves. Final assay conditions were 0.5 nM KRAS G12C, 0.75 nM RBD and 5 μg/ml each of AlphaScreen donor and acceptor beads. IC50s were determined using nonlinear regression fit of [inhibitor] vs. response (4 parameters).
A counter assay was also set up to rule out inhibitors of the AlphaScreen technology itself. Compound plates were incubated for 2 hours as above with buffer only. The AlphaScreen beads were added as above except biotin-AviTag-GST was substituted for the RBD. Samples were read and analyzed as above.

T1 sequence (P01116 1-169 isoform P01116-2 G12C/C51S/C80L/C118S): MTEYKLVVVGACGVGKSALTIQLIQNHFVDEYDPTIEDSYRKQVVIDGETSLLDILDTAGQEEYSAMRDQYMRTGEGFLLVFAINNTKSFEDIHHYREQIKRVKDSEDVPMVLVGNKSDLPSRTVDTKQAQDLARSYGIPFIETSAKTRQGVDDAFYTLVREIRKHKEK

In the case of `C#Cc1c(F)ccc2cccc(-c3ncc4c(N5CCN(C(=O)/C(F)=C/c6cc(C)nc(C)n6)[C@@H](CC#N)C5)nc(OC[C@@]56CCCN5C[C@H](F)C6)nc4c3F)c12` [Compound 29, 2-((S)-1-((Z)-3-(2,6-dimethylpyrimidin-4-yl)-2-fluoroacryloyl)-4-(7-(8-ethynyl-7-fluoronaphthalen-1-yl)-8-fluoro-2-(((2R,7aS)-2-fluorotetrahydro-1H-pyrrolizin-7a(5H)-yl)methoxy)pyrido[4,3-d]pyrimidin-4-yl)piperazin-2-yl)acetonitrile], the IC50 is reported as < 10 nM.

`C#Cc1c(F)ccc2cccc(-c3ncc4c(N5CCN(C(=O)/C(F)=C/c6ccnc(C)n6)[C@@H](CC#N)C5)nc(OC[C@@]56CCCN5C[C@H](F)C6)nc4c3F)c12` [Compound 30] was tested, and the IC50 was < 10 nM.

`N#CC[C@H]1CN(c2nc(OC[C@@]34CCCN3C[C@H](F)C4)nc3c(F)c(-c4cccc5ccc(F)c(Cl)c45)ncc23)CCN1C(=O)/C(F)=C/CN1[C@@H]2CC[C@H]1COC2` [Compound 31] was tested, and the IC50 was ≥ 500 nM.

`Cc1cc(/C=C(\F)C(=O)N2CCN(c3nc(OC[C@@]45CCCN4C[C@H](F)C5)nc4c(F)c(-c5cccc(Cl)c5C5CC5)ncc34)C[C@@H]2CC#N)nc(C)n1` [Compound 32, 2-((S)-4-(7-(3-chloro-2-cyclopropylphenyl)-8-fluoro-2-(((2R,7aS)-2-fluorotetrahydro-1H-pyrrolizin-7a(5H)-yl)methoxy)pyrido[4,3-d]pyrimidin-4-yl)-1-((Z)-3-(2,6-dimethylpyrimidin-4-yl)-2-fluoroacryloyl)piperazin-2-yl)acetonitrile] was tested, and the IC50 was < 10 nM.

With `Cc1nccc(/C=C(\F)C(=O)N2CCN(c3nc(OC[C@@]45CCCN4C[C@H](F)C5)nc4c(F)c(-c5cccc6cccc(F)c56)ncc34)C[C@@H]2CC#N)n1` [Compound 33] the IC50 was < 10 nM.

`Cc1cc(/C=C(\F)C(=O)N2CCN(c3nc(OC[C@@]45CCCN4C[C@H](F)C5)nc4c(F)c(-c5cccc6ccc(F)c(C)c56)ncc34)C[C@@H]2CC#N)nc(C)n1` [Compound 34] was tested, and the IC50 was < 10 nM.

In the case of `Cc1cc(/C=C(\F)C(=O)N2CCN(c3nc(OC[C@@]45CCCN4C[C@H](F)C5)nc4c(F)c(-c5cccc6ccc(F)c(Cl)c56)ncc34)C[C@@H]2CC#N)nc(C)n1` [Compound 35], the IC50 is reported as < 10 nM.

For `Cc1nccc(/C=C(\F)C(=O)N2CC[C@H](O)[C@@H](N(C)c3nc(OC[C@@]45CCCN4C[C@H](F)C5)nc4c(F)c(-c5cccc6cccc(Cl)c56)ncc34)C2)n1` [Compound 36], the IC50 was 100 to 500 nM.

With `Cc1nccc(/C=C(\F)C(=O)N2CC[C@@H](N(C)c3nc(OC[C@@]45CCCN4C[C@H](F)C5)nc4c(F)c(-c5cccc6cccc(Cl)c56)ncc34)C2)n1` [Compound 37, (Z)-1-((R)-3-((7-(8-chloronaphthalen-1-yl)-8-fluoro-2-(((2R,7aS)-2-fluorotetrahydro-1H-pyrrolizin-7a(5H)-yl)methoxy)pyrido[4,3-d]pyrimidin-4-yl)(methyl)amino)pyrrolidin-1-yl)-2-fluoro-3-(2-methylpyrimidin-4-yl)prop-2-en-1-one] the IC50 was < 10 nM.

For `Cc1nccc(/C=C(\F)C(=O)N2CC[C@@H](N(C)c3nc(OC[C@@]45CCCN4C[C@H](F)C5)nc4c(F)c(-c5cccc6ccc(F)c(F)c56)ncc34)C2)n1` [Compound 38], the IC50 was < 10 nM.

`Cc1nccc(/C=C(\F)C(=O)N2CC[C@@H](N(C)c3nc(OC[C@@]45CCCN4C[C@H](F)C5)nc4c(F)c(-c5cccc(Cl)c5C5CC5)ncc34)C2)n1` [Compound 39] was tested, and the IC50 was < 10 nM.

With `Cc1nccc(/C=C(\F)C(=O)N2CC(CN(C)c3nc(OC[C@@]45CCCN4C[C@H](F)C5)nc4c(F)c(-c5cccc6cccc(Cl)c56)ncc34)C2)n1` [Compound 40] the IC50 was < 10 nM.

With `Cc1cc(/C=C(\F)C(=O)N2CC[C@@H](N(C)c3nc(OC[C@@]45CCCN4C[C@H](F)C5)nc4c(F)c(-c5cccc6ccc(F)c(F)c56)ncc34)C2)nc(C)n1` [Compound 41, (Z)-1-((R)-3-((7-(7,8-difluoronaphthalen-1-yl)-8-fluoro-2-(((2R,7aS)-2-fluorotetrahydro-1H-pyrrolizin-7a(5H)-yl)methoxy)pyrido[4,3-d]pyrimidin-4-yl)(methyl)amino)pyrrolidin-1-yl)-3-(2,6-dimethylpyrimidin-4-yl)-2-fluoroprop-2-en-1-one] the IC50 was < 10 nM.

`C#Cc1c(F)ccc2cccc(-c3ncc4c(N(C)[C@@H]5CCN(C(=O)/C(F)=C/c6ccnc(C)n6)C5)nc(OC[C@@]56CCCN5C[C@H](F)C6)nc4c3F)c12` [Compound 42] was tested, and the IC50 was < 10 nM.

`Cc1nccc(/C=C(\F)C(=O)N2CC[C@@H](N(C)c3nc(OC[C@@]45CCCN4C[C@H](F)C5)nc4c(F)c(-c5cccc(Cl)c5C(F)(F)F)ncc34)C2)n1` [Compound 43] was tested, and the IC50 was < 10 nM.

`C#Cc1c(F)ccc2cccc(-c3ncc4c(N(C)[C@@H]5CCN(C(=O)/C(F)=C/c6cc(C)nc(C)n6)C5)nc(OC[C@@]56CCCN5C[C@H](F)C6)nc4c3F)c12` [Compound 44, (Z)-3-(2,6-dimethylpyrimidin-4-yl)-1-((R)-3-((7-(8-ethynyl-7-fluoronaphthalen-1-yl)-8-fluoro-2-(((2R,7aS)-2-fluorotetrahydro-1H-pyrrolizin-7a(5H)-yl)methoxy)pyrido[4,3-d]pyrimidin-4-yl)(methyl)amino)pyrrolidin-1-yl)-2-fluoroprop-2-en-1-one] was tested, and the IC50 was < 10 nM.

In the case of `CCc1c(F)ccc2cccc(-c3ncc4c(N(C)[C@@H]5CCN(C(=O)/C(F)=C/c6ccnc(C)n6)C5)nc(OC[C@@]56CCCN5C[C@H](F)C6)nc4c3F)c12` [Compound 45], the IC50 is reported as < 10 nM.

`Cc1cc(/C=C(\F)C(=O)N2CC[C@@H](N(C)c3nc(OC[C@@]45CCCN4C[C@H](F)C5)nc4c(F)c(-c5cccc(Cl)c5C5CC5)ncc34)C2)nc(C)n1` [Compound 46, (Z)-1-((R)-3-((7-(3-chloro-2-cyclopropylphenyl)-8-fluoro-2-(((2R,7aS)-2-fluorotetrahydro-1H-pyrrolizin-7a(5H)-yl)methoxy)pyrido[4,3-d]pyrimidin-4-yl)(methyl)amino)pyrrolidin-1-yl)-3-(2,6-dimethylpyrimidin-4-yl)-2-fluoroprop-2-en-1-one] was tested, and the IC50 was < 10 nM.

In the case of `Cc1cc(/C=C(\F)C(=O)N2CC[C@@H](N(C)c3nc(OC[C@@]45CCCN4C[C@H](F)C5)nc4c(F)c(-c5cccc(Cl)c5C(F)(F)F)ncc34)C2)nc(C)n1` [Compound 47], the IC50 is reported as < 10 nM.

`COc1nc(N(C)[C@@H]2CCN(C(=O)/C(F)=C/c3cc(C)nc(C)n3)C2)c2cnc(-c3cccc4ccc(F)c(F)c34)c(F)c2n1` [Compound 48] was tested, and the IC50 was ≥ 500 nM.

`C#Cc1c(F)ccc2cccc(-c3ncc4c(N5CCN(C(=O)/C(F)=C/c6cc(C)nc(C)n6)[C@@H](CC#N)C5)nc(OC)nc4c3F)c12` [Compound 49, (S,Z)-2-(1-(3-(2,6-dimethylpyrimidin-4-yl)-2-fluoroacryloyl)-4-(7-(8-ethynyl-7-fluoronaphthalen-1-yl)-8-fluoro-2-methoxypyrido[4,3-d]pyrimidin-4-yl)piperazin-2-yl)acetonitrile] showed an IC50 of 100 to 500 nM.

In the case of `Cc1cc(/C=C(\F)C(=O)N2CC[C@@H](N(C)c3nc(OC[C@@H]4CCCN4C)nc4c(F)c(-c5cccc(Cl)c5C5CC5)ncc34)C2)nc(C)n1` [Compound 50], the IC50 is reported as 10 to 100 nM.

Compound `Cc1cc(/C=C(\F)C(=O)N2CC[C@@H](N(C)c3nc(N4CC(N(C)C)C4)nc4c(F)c(-c5cccc(Cl)c5C5CC5)ncc34)C2)nc(C)n1` [Compound 51] has an IC50 of 100 to 500 nM.

With `Cc1cc(/C=C(\F)C(=O)N2CC[C@@H](N(C)c3nc(OC[C@@H]4CCCN4C)nc4c(F)c(-c5cccc6ccc(F)c(F)c56)ncc34)C2)nc(C)n1` [Compound 52] the IC50 was < 10 nM.

Compound `Cc1cc(/C=C(\F)C(=O)N2CC[C@@H](N(C)c3nc(N4CC(N(C)C)C4)nc4c(F)c(-c5cccc6ccc(F)c(F)c56)ncc34)C2)nc(C)n1` [Compound 53] has an IC50 of 10 to 100 nM.

In the case of `COc1nc(N2CCN(C(=O)/C(F)=C/c3cc(C)nc(C)n3)[C@@H](CC#N)C2)c2cnc(-c3cccc4ccc(F)c(Cl)c34)c(F)c2n1` [Compound 54, (S,Z)-2-(4-(7-(8-chloro-7-fluoronaphthalen-1-yl)-8-fluoro-2-methoxypyrido[4,3-d]pyrimidin-4-yl)-1-(3-(2,6-dimethylpyrimidin-4-yl)-2-fluoroacryloyl)piperazin-2-yl)acetonitrile], the IC50 is reported as ≥ 500 nM.

In the case of `COc1nc(N2CCN(C(=O)/C(F)=C/c3cc(C)nc(C)n3)[C@@H](CC#N)C2)c2cnc(-c3cc(O)cc(Cl)c3C3CC3)c(F)c2n1` [Compound 55, (S,Z)-2-(4-(7-(3-chloro-2-cyclopropyl-5-hydroxyphenyl)-8-fluoro-2-methoxypyrido[4,3-d]pyrimidin-4-yl)-1-(3-(2,6-dimethylpyrimidin-4-yl)-2-fluoroacryloyl)piperazin-2-yl)acetonitrile], the IC50 is reported as < 10 nM.
